What all share (type): cell-based
One assay deals with Aβ-38. As to the kind of experiment: MSD Human (6E10) Ab 3-PLEX elisa, conditioned media of 2B7 cells: Aβ-38. The conditions noted are these: Homo sapiens; for IC50: Aβ-38 (superscript a). How it is done: (§1) Assays were conducted to determine the ability of a Compound of Formula I to modulate […], and Aβ-38.
(§2) Plates with capture antibodies were blocked for 1-2 hours at room temperature with 150 μL of the manufactures blocking reagent.
(§3) Conditioned Media: • Cultured 2B7 cells in 96 well plate with 250 uL of media per well until confluent; • Prepared serial dilutions of compounds in DMSO at 100× the final desired concentration; • Washed wells with 2B7 cells 1× with 250 uL of media; • Diluted DMSO stocks 1:100 into media: • Added 250 μL of media containing compounds (1% DMSO) to wells with 2B7 cells for 5 hours at 37° C.
(§4) Elisa Sample Prep: • Diluted conditioned media: 1 part media with 1% DMSO and 1 part blocking buffer; • 150 μL of the 250 μL of conditioned media were used.
(§5) […] CURVE SAMPLE PREP: Prepared per manufacturer's protocol (see above) • Seven point standard curve samples were prepared that contained Aβ-42, Aβ-40, and Aβ-38. The highest concentration of Aβ-42 and Aβ-3-38 was 3,000 pg/mL and the highest concentration of Aβ-40 was 10,000 pg/mL. Subsequent serial dilutions were 1:3 and the final composition of each sample was 1 part blocking buffer and 1 part cell medium containing 1% DMSO.
(§6) Overnight Sample Incubation: • Blocked plates are washed 5× with MSD wash buffer with a plate washer • 25 uL of detection antibody and blocker G reagent in MSD blocking solution is added • 25 uL of samples (1 part conditioned media containing 1% DMSO and 1 part MSD blocking buffer) are then added. • plates are incubated overnight at 4 degrees C. or 2 hours at room temp
(§7) Final Wash and Readout: • Wash wells 5× with MSD wash buffer • Added 150 μL 2×MSD read buffer • Read with MSD imager.
(§8) A-Beta peptide levels for each peptide are calculated from the standard curve using the MSD software provided with the MSD 2400 Imager. Percent vehicle values for each compound dosage were then calculated and fit to a 4 parameter curve generating IC50 values.

A further assay has as its system Aβ-40. Description: MSD Human (6E10) Ab 3-PLEX elisa, conditioned media of 2B7 cells: Aβ-40. The conditions noted are these: for inhibition at 20 µM / IC50: Homo sapiens; for IC50: Aβ-40 (superscript b). On the procedure: as §1, §2, §3, §4, §5, §6, §7, §8
The next assay concerns Aβ-42. Description: MSD Human (6E10) Ab 3-PLEX elisa, conditioned media of 2B7 cells: Aβ-42. Conditions: Homo sapiens; for IC50: Aβ-42 (superscript c); for inhibition at 20 µM: Aβ-42, 20 μM. How it is done:
as §1, §2, §3, §4, §5, §6, §7, §8

Where two headings read alike, the source gives them in different places.

`CC(=O)O[C@@H]([C@H]1C[C@@H](C)[C@H]2[C@H](O1)[C@H](O)[C@@]1(C)[C@@H]3CC[C@H]4C(C)(C)C(OC(N)=O)CC[C@@]45C[C@@]35CC[C@]21C)C(C)(C)O` (stereo partly shown) [drawing 1201]: the IC50 in the assay with Aβ-38 (read-out: 50% reduction value), in the assay with Aβ-38 (read-out: IC50 range), in the assay with Aβ-42 (read-out: 50% reduction value) and with Aβ-42 (read-out: IC50 range) was below 1 µM throughout. The inhibition at 20 µM in the assay on Aβ-40 (Aβ-40, 20 μM) lay in the range of 25 to 75%.

Turning to `CCO[C@@H]([C@H]1C[C@@H](C)[C@H]2[C@H](O1)[C@H](O)[C@@]1(C)C3CC[C@H]4C(C)(C)C(OC(=O)N5CCC5)CC[C@@]45C[C@@]35CC[C@]21C)C(C)(C)O` (stereo partly shown), the IC50 is below 1 µM in the assay on Aβ-38 (read-out: 50% reduction value), 1 to 10 µM in the assay with Aβ-38 (read-out: IC50 range), below 1 µM in the assay on Aβ-42 (read-out: 50% reduction value) and below 1 µM in the assay with Aβ-42 (read-out: IC50 range). For the same compound, the “% Inh. (range)” value in the assay on Aβ-40 (Aβ-40, 20 μM) is “E/F^b (20 μM)”.

As to `CC(=O)OC(C)(C)C1C[C@@H](C)[C@H]2C(O1)[C@H](O)[C@@]1(C)C3CC[C@H]4C(C)(C)C(OC(=O)N5CCOCC5)CC[C@@]45C[C@@]35CC[C@]21C` (stereo partly shown), the inhibition at 20 µM in the assay on Aβ-38 (Aβ-38, 20 μM) is 25 to 75%; in the assay with Aβ-40 (Aβ-40, 20 μM), below 25%; with Aβ-42 it was below 25%.

With `CCS[C@@H](C1C[C@@H](C)C2C(O1)[C@H](O)[C@@]1(C)C3CC[C@H]4C(C)(C)C(O[C@H]5CN(C6COC6)CCO5)CC[C@@]45C[C@@]35CC[C@]21C)C(C)(C)O` (stereo partly shown), the IC50 in the assay on Aβ-38 (read-out: 50% reduction value) is 1 to 10 µM; with Aβ-40 (read-out: 50% reduction value), above 10 µM. The inhibition at 20 µM with Aβ-42 was in the range of 25 to 75%.

With `CO[C@@H](C1C[C@@H](C)[C@H]2C(O1)[C@H](O)[C@@]1(C)C3CC[C@H]4C(C)(C)C(OC(=O)N5CCC5)CC[C@@]45C[C@@]35CC[C@]21C)C(C)(C)O` (stereo partly shown), the IC50 in the assay with Aβ-38 (read-out: 50% reduction value) is 1 to 10 µM; in the assay on Aβ-40 (read-out: 50% reduction value), above 10 µM; in the assay with Aβ-42 (read-out: 50% reduction value), 1 to 10 µM.

Consider `CCO[C@@H]([C@H]1C[C@@H](C)[C@H]2[C@H](O1)[C@H](O)[C@@]1(C)C3CC[C@H]4C(C)(C)[C@@H](O[C@H]5CN(C6COC6)CCO5)CC[C@@]45C[C@@]35CC[C@]21C)C(C)(C)O` (stereo partly shown), for which the IC50 is below 1 µM in the assay with Aβ-38 (read-out: 50% reduction value), 1 to 10 µM in the assay on Aβ-40 (read-out: 50% reduction value), below 1 µM with Aβ-42 (read-out: 50% reduction value) and below 1 µM in the assay with Aβ-42 (read-out: IC50 range).

Take `C[C@@H]1CC(CNC(=O)N(C)C)OC2[C@H]1[C@@]1(C)CC[C@@]34C[C@@]35CC[C@H](O)C(C)(C)[C@@H]5CCC4[C@]1(C)[C@H]2O` (stereo partly shown): the IC50 in the assay with Aβ-38 (read-out: 50% reduction value) was above 10 µM. The inhibition at 20 µM in the assay on Aβ-40 (Aβ-40, 20 μM) is 25 to 75%; with Aβ-42, below 25%.

In the case of `C[C@@H]1C[C@H]([C@H](OC(N)=O)C(C)(C)O)O[C@H]2[C@H]1[C@@]1(C)CC[C@@]34C[C@@]35CC[C@H](O[C@H]3CN(C6COC6)CCO3)C(C)(C)[C@@H]5CCC4[C@]1(C)[C@H]2O` (stereo partly shown), the values for the IC50 in the assay on Aβ-38 (read-out: 50% reduction value) and in the assay on Aβ-40 (read-out: 50% reduction value) were 1 to 10 µM and above 10 µM, respectively. The inhibition at 20 µM with Aβ-42 fell in the range of 25 to 75%.

For the compound `CO[C@@H](C1C[C@@H](C)[C@H]2C(O1)[C@H](O)[C@@]1(C)C3CC[C@H]4C(C)(C)C(OC(=O)NC5CNC5)CC[C@@]45C[C@@]35CC[C@]21C)C(C)(C)O` (stereo partly shown), the IC50 in the assay with Aβ-38 (read-out: 50% reduction value) was below 1 µM; in the assay with Aβ-40 (read-out: 50% reduction value), 1 to 10 µM; with Aβ-40 (read-out: IC50 range), 1 to 10 µM; in the assay with Aβ-42 (read-out: 50% reduction value) it was below 1 µM; in the assay with Aβ-42 (read-out: IC50 range) it was below 1 µM.

Take `C[C@@H]1CC(COC(=O)N2CCC2)OC2[C@H]1[C@@]1(C)CC[C@@]34C[C@@]35CC[C@H](O[C@H]3CN(C(=O)CC6CC6)CCO3)C(C)(C)[C@@H]5CCC4[C@]1(C)[C@H]2O` (stereo partly shown): the IC50 with Aβ-38 (read-out: IC50 range) is below 1 µM; with Aβ-40 (read-out: IC50 range), 1 to 10 µM; with Aβ-42 (read-out: IC50 range), 1 to 10 µM.

On to `CC(C)OC(C)(C)[C@H](O)C1C[C@@H](C)[C@H]2C(O1)[C@H](O)[C@@]1(C)C3CC[C@H]4C(C)(C)C(O)CC[C@@]45C[C@@]35CC[C@]21C` (stereo partly shown), for which the IC50 in the assay on Aβ-38 (read-out: 50% reduction value) is 1 to 10 µM; in the assay with Aβ-40 (read-out: 50% reduction value), above 10 µM. Moreover, in the assay on Aβ-42, the inhibition at 20 µM was 25 to 75%.

For the compound `CC(C)[C@@H](OC(=O)N1CCC1)C1C[C@@H](C)[C@H]2C(O1)[C@H](O)[C@@]1(C)C3CC[C@H]4C(C)(C)C(OC(=O)NC5CNC5)CC[C@@]45C[C@@]35CC[C@]21C` (stereo partly shown), the IC50 was below 1 µM in the assay on Aβ-38 (read-out: 50% reduction value); below 1 µM in the assay on Aβ-38 (read-out: IC50 range); 1 to 10 µM in the assay with Aβ-40 (read-out: 50% reduction value); 1 to 10 µM with Aβ-40 (read-out: IC50 range); below 1 µM with Aβ-42 (read-out: 50% reduction value); below 1 µM in the assay with Aβ-42 (read-out: IC50 range).

With `C[C@@H]1CC(COC(=O)C2CC2)OC2[C@H]1[C@@]1(C)CC[C@@]34C[C@@]35CC[C@H](O[C@H]3CN(C6COC6)CCO3)C(C)(C)[C@@H]5CCC4[C@]1(C)[C@H]2O` (stereo partly shown), the IC50 in the assay on Aβ-38 (read-out: 50% reduction value) was 1 to 10 µM; in the assay on Aβ-40 (read-out: 50% reduction value), above 10 µM. This compound came in with an inhibition at 20 µM with Aβ-42 below 25%.

With `CCNC(=O)O[C@H](C(C)C)C1C[C@@H](C)[C@H]2C(O1)[C@H](O)[C@@]1(C)C3CC[C@H]4C(C)(C)C(OC(=O)NC5CNC5)CC[C@@]45C[C@@]35CC[C@]21C` (stereo partly shown), the IC50 with Aβ-38 (read-out: 50% reduction value) was below 1 µM; with Aβ-38 (read-out: IC50 range) it was below 1 µM; in the assay with Aβ-40 (read-out: 50% reduction value) it was 1 to 10 µM; in the assay with Aβ-40 (read-out: IC50 range), above 10 µM; in the assay with Aβ-42 (read-out: 50% reduction value), below 1 µM; in the assay with Aβ-42 (read-out: IC50 range), below 1 µM.

The values are drawn from patent publication US20110251379A1, “COMPOUNDS USEFUL FOR TREATING NEURODEGENERATIVE DISORDERS” (Satori Pharmaceuticals, Inc., priority 2010, published 2011).
